pIC50, pKi: −log10 of the molar value.
Assays:
[1] = biological target: 17beta-hydroxysteroid dehydrogenase type 1 (Homo sapiens); test: Displacement of [3H]estrone human recombinant 17beta-HSD1 expressed in Escherichia coli BL21 (DE3)-RIL by scintillation counting in presence of bacterial homogenate
[2] = biological target: 17beta-hydroxysteroid dehydrogenase type 1 (Homo sapiens); test: Displacement of [3H]estrone human recombinant 17beta-HSD1 expressed in Escherichia coli BL21 (DE3)-RIL by competitive inhibition assay in presence of bacterial homogenate
[3] = biological target: 17beta-hydroxysteroid dehydrogenase type 1 (Homo sapiens); test: Inhibition of 17beta-HSD1

SMILES	pIC50 [1]	pKi [2]	pIC50 [3]
CC(=O)c1cc2ccc(OS(=O)(=O)C(F)(F)F)cc2oc1=O [3-Acetyl-2-oxo-2H-chromen-7-yl trifluoromethanesulfonate]	6.44	6.76	
CC(=O)c1cc2ccc(-c3ccc(O)cc3)cc2oc1=O [3-Acetyl-7-(4-hydroxyphenyl)-2H-chromen-2-one]	6.57	6.84	
COc1ccc(-c2ccc3cc(C(C)=O)c(=O)oc3c2)cc1 [3-Acetyl-7-(4-methoxyphenyl)-2H-chromen-2-one]	5.95	6.23	
CC(=O)c1cc2ccc(-c3ccc(C)cc3)cc2oc1=O [3-Acetyl-7-para-tolyl-2H-chromen-2-one]	5.91	6.23	
COc1cc(-c2nc3sc4c(O)cccc4c3c(=O)n2Cc2ccccc2)c(Br)c(OC)c1OC [3-Benzyl-2-(2-bromo-3,4,5-trimethoxy-phenyl)-8-hydroxy-3H-benzo[4,5]thieno[2,3-d]pyrimidin-4-one]			8.30

Source: BindingDB's records for doi:10.1021/jm101104z (University of Ljubljana, 2011)
